Data from PubChem BioAssay (NCI).
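Method: 48-hour compound exposure of cells in 96-well plates, five concentrations, linear interpolation of endpoints. GI50 marks 50% less growth. TGI: concentration producing complete growth inhibition.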

Tests used:
Test in all cases: NCI anticancer screen, dose series, 48 h
U251 CNS = tested on: U251 CNS
IGROV1 ovarian = tested on: IGROV1 ovarian
PC-3 prostate = tested on: PC-3 prostate
SF-295 CNS = tested on: SF-295 CNS
OVCAR-4 ovarian = tested on: OVCAR-4 ovarian
RPMI-8226 leukemia = tested on: RPMI-8226 leukemia
CAKI-1 renal = tested on: CAKI-1 renal
UO-31 renal = tested on: UO-31 renal
A549 NSCLC = tested on: A549 NSCLC
MDA-MB-231 breast = tested on: MDA-MB-231 breast
A498 renal = tested on: A498 renal
TK-10 renal = tested on: TK-10 renal
OVCAR-5 ovarian = tested on: OVCAR-5 ovarian
NCI-H460 lung = tested on: NCI-H460 lung
HCT-15 colon = tested on: HCT-15 colon
MDA-MB-435 = tested on: MDA-MB-435
SK-MEL-2 melanoma = tested on: SK-MEL-2 melanoma
BT-549 breast = tested on: BT-549 breast
RXF 393 renal = tested on: RXF 393 renal
OVCAR-3 ovarian = tested on: OVCAR-3 ovarian
SK-OV-3 ovarian = tested on: SK-OV-3 ovarian
SK-MEL-5 melanoma = tested on: SK-MEL-5 melanoma
MCF7 breast = tested on: MCF7 breast
SF-539 CNS = tested on: SF-539 CNS
OVCAR-8 ovarian = tested on: OVCAR-8 ovarian
HT29 colon = tested on: HT29 colon
SF-268 CNS = tested on: SF-268 CNS
UACC-62 melanoma = tested on: UACC-62 melanoma
HCT-116 colon = tested on: HCT-116 colon
COLO 205 colon = tested on: COLO 205 colon
NCI-H23 lung = tested on: NCI-H23 lung
MALME-3M melanoma = tested on: MALME-3M melanoma
NCI-H522 lung = tested on: NCI-H522 lung
UACC-257 melanoma = tested on: UACC-257 melanoma
EKVX NSCLC = tested on: EKVX NSCLC
ACHN renal = tested on: ACHN renal
LOX IMVI melanoma = tested on: LOX IMVI melanoma
SNB-19 CNS = tested on: SNB-19 CNS
HCC-2998 colon = tested on: HCC-2998 colon
HOP-92 NSCLC = tested on: HOP-92 NSCLC
KM12 colon = tested on: KM12 colon
786-0 renal = tested on: 786-0 renal
NCI-H226 lung = tested on: NCI-H226 lung
DU-145 prostate = tested on: DU-145 prostate
SN12C renal = tested on: SN12C renal
T-47D breast = tested on: T-47D breast
SW-620 colon = tested on: SW-620 colon
SK-MEL-28 melanoma = tested on: SK-MEL-28 melanoma
HOP-62 NSCLC = tested on: HOP-62 NSCLC
M14 melanoma = tested on: M14 melanoma
CCRF-CEM leukemia = tested on: CCRF-CEM leukemia
SNB-75 CNS = tested on: SNB-75 CNS
K-562 leukemia = tested on: K-562 leukemia

## Cc1ccc(S(=O)(=O)c2ccccc2)cc1
U251 CNS
  GI50: 4.32 µM
  TGI: > 100 µM
IGROV1 ovarian
  GI50: 3.97 µM
  TGI: > 100 µM
PC-3 prostate
  GI50: 4.24 µM
  TGI: > 100 µM
SF-295 CNS
  GI50: 2.55 µM
  TGI: 9.03 µM
OVCAR-4 ovarian
  GI50: 22.2 µM
  TGI: > 100 µM
RPMI-8226 leukemia
  GI50: 3.4 µM
  TGI: 9.87 µM
CAKI-1 renal
  GI50: 2.39 µM
  TGI: > 100 µM
UO-31 renal
  GI50: 5.7 µM
  TGI: > 100 µM
A549 NSCLC
  GI50: 4.27 µM
  TGI: > 100 µM
MDA-MB-231 breast
  GI50: 3.63 µM
  TGI: > 100 µM
A498 renal
  GI50: 2.8 µM
  TGI: 29.5 µM
TK-10 renal
  GI50: 5.65 µM
  TGI: > 100 µM
OVCAR-5 ovarian
  GI50: 8.44 µM
  TGI: > 100 µM
NCI-H460 lung
  GI50: 3.26 µM
  TGI: 21.1 µM
HCT-15 colon
  GI50: 4.91 µM
  TGI: > 100 µM
MDA-MB-435
  GI50: 0.834 µM
  TGI: 5.06 µM
SK-MEL-2 melanoma
  GI50: 3.01 µM
  TGI: > 100 µM
BT-549 breast
  GI50: 8.05 µM
  TGI: > 100 µM
RXF 393 renal
  GI50: 2.62 µM
  TGI: 7.54 µM
OVCAR-3 ovarian
  GI50: 2.32 µM
  TGI: 5.02 µM
SK-OV-3 ovarian
  GI50: 3.89 µM
  TGI: 42.2 µM
SK-MEL-5 melanoma
  GI50: 4.01 µM
  TGI: > 100 µM
MCF7 breast
  GI50: 4 µM
  TGI: > 100 µM
SF-539 CNS
  GI50: 2.55 µM
  TGI: 7 µM
OVCAR-8 ovarian
  GI50: 5.77 µM
  TGI: > 100 µM
HT29 colon
  GI50: 2.7 µM
  TGI: 48.9 µM
SF-268 CNS
  GI50: 5.82 µM
  TGI: > 100 µM
UACC-62 melanoma
  GI50: 4.61 µM
  TGI: > 100 µM
HCT-116 colon
  GI50: 3.86 µM
  TGI: > 100 µM
COLO 205 colon
  GI50: 2.71 µM
  TGI: 6.3 µM
NCI-H23 lung
  GI50: 6.14 µM
  TGI: > 100 µM
MALME-3M melanoma
  GI50: 4.76 µM
  TGI: > 100 µM
NCI-H522 lung
  GI50: 1.82 µM
  TGI: 4.68 µM
UACC-257 melanoma
  GI50: 42 µM
  TGI: > 100 µM
EKVX NSCLC
  GI50: 3.87 µM
  TGI: > 100 µM
ACHN renal
  GI50: 11.7 µM
  TGI: > 100 µM
LOX IMVI melanoma
  GI50: 5.05 µM
  TGI: > 100 µM
SNB-19 CNS
  GI50: 4.73 µM
  TGI: > 100 µM
HCC-2998 colon
  GI50: 6.82 µM
  TGI: 64.4 µM
HOP-92 NSCLC
  GI50: 2.62 µM
  TGI: 26.2 µM
KM12 colon
  GI50: 3.45 µM
  TGI: 68.5 µM
786-0 renal
  GI50: 8.08 µM
  TGI: > 100 µM
NCI-H226 lung
  GI50: 16.6 µM
  TGI: > 100 µM
DU-145 prostate
  GI50: 2.78 µM
  TGI: 7.9 µM
SN12C renal
  GI50: 5.37 µM
  TGI: > 100 µM
T-47D breast
  GI50: 6.43 µM
  TGI: > 100 µM
SW-620 colon
  GI50: 3.2 µM
  TGI: > 100 µM
SK-MEL-28 melanoma
  GI50: 5.65 µM
  TGI: > 100 µM

## C=CCN1C(=O)c2cccc3c(N4CCOCC4)ccc(c23)C1=O
U251 CNS
  GI50: 0.0592 µM
  TGI: 0.606 µM
IGROV1 ovarian
  GI50: 0.0114 µM
  TGI: 0.0915 µM
PC-3 prostate
  GI50: 0.128 µM
  TGI: 0.748 µM
OVCAR-4 ovarian
  GI50: 0.31 µM
  TGI: > 100 µM
HOP-62 NSCLC
  GI50: 0.101 µM
  TGI: > 100 µM
UO-31 renal
  GI50: 0.0134 µM
  TGI: 0.322 µM
A549 NSCLC
  GI50: 0.102 µM
  TGI: 0.595 µM
A498 renal
  GI50: 0.0138 µM
  TGI: 0.0421 µM
TK-10 renal
  GI50: 0.0623 µM
  TGI: 0.791 µM
NCI-H460 lung
  GI50: 0.272 µM
  TGI: 12.7 µM
MDA-MB-435
  GI50: 0.0659 µM
  TGI: 22.2 µM
SK-MEL-2 melanoma
  GI50: 0.146 µM
  TGI: 0.675 µM
BT-549 breast
  GI50: 0.0234 µM
  TGI: 0.294 µM
RXF 393 renal
  GI50: 0.0162 µM
  TGI: 0.128 µM
OVCAR-3 ovarian
  GI50: 0.0118 µM
  TGI: 0.142 µM
SK-OV-3 ovarian
  GI50: 0.0498 µM
  TGI: 0.667 µM
SK-MEL-5 melanoma
  GI50: 0.0274 µM
  TGI: 0.127 µM
SF-539 CNS
  GI50: 0.0293 µM
  TGI: 0.376 µM
OVCAR-8 ovarian
  GI50: 0.229 µM
  TGI: > 100 µM
HT29 colon
  GI50: 0.065 µM
  TGI: 11.1 µM
SF-268 CNS
  GI50: 0.104 µM
  TGI: 0.548 µM
UACC-62 melanoma
  GI50: 0.188 µM
  TGI: 0.613 µM
HCT-116 colon
  GI50: 0.0961 µM
  TGI: 0.428 µM
M14 melanoma
  GI50: 0.0429 µM
  TGI: > 100 µM
NCI-H23 lung
  GI50: 0.126 µM
  TGI: > 100 µM
NCI-H522 lung
  GI50: 0.206 µM
  TGI: 12.3 µM
UACC-257 melanoma
  GI50: 0.0685 µM
  TGI: 0.642 µM
CCRF-CEM leukemia
  GI50: 0.0452 µM
  TGI: > 100 µM
EKVX NSCLC
  GI50: 0.0405 µM
  TGI: 0.979 µM
ACHN renal
  GI50: 0.113 µM
  TGI: > 100 µM
LOX IMVI melanoma
  GI50: 0.023 µM
  TGI: 0.159 µM
HOP-92 NSCLC
  TGI: 0.0416 µM
KM12 colon
  GI50: 0.131 µM
  TGI: 60.9 µM
SNB-75 CNS
  TGI: 40.6 µM
786-0 renal
  GI50: 0.263 µM
  TGI: 32.7 µM
K-562 leukemia
  GI50: 0.202 µM
  TGI: > 100 µM
NCI-H226 lung
  GI50: 0.167 µM
  TGI: 1.75 µM
DU-145 prostate
  GI50: 0.0638 µM
  TGI: 13.6 µM
SN12C renal
  GI50: 0.0796 µM
  TGI: > 100 µM
T-47D breast
  GI50: 0.0148 µM
  TGI: 11.5 µM
SW-620 colon
  GI50: 0.249 µM
  TGI: 12.5 µM
SK-MEL-28 melanoma
  GI50: 0.0254 µM
  TGI: 0.492 µM
